Measurements taken from patent publication US7563862B2, “Neural regeneration peptides and methods for their use in treatment of brain damage” (Neuren Pharmaceuticals Limited, priority 2001, dated 2009).
“Also recorded” adds a separate entry of the source. Like-named read-outs stand apart in the source and are kept apart here. Ends that are not written are not given here. Peptide text beside a SMILES is read from it.

Tests used:
cerebellar microexplants [1] = assay: cerebellar microexplant survival assay, 3-NP/glutamate injury; assay type: cell-based, rat; conditions: for neuroprotective activity compared to NRP-5 RG / concentration of maximal neuroprotective effect: NRP-5 RG analogues
Procedure: Toxicological and drug administration experiments were designed such that 1/100 parts of toxin and neuroprotective drug were administered simultaneously to the freshly prepared cerebellar microexplants derived from P-4 or P8 rats. Glutamate was prepared as a 50 mM stock solution in MilliQ water while 50 mM 3-nitropropionic acid was pH-adjusted (pH 6.8-7.2) in MilliQ water. The concentrations of the oxidative stress inducing toxin, 3-nitropropionic acid (3-NP), and the excitotoxin, glutamate, in the assay were 0.5 mM each. Lyophilized peptides were reconstituted in PBS or 100 μg/ml human transferrin as a 10 μM stock solution. Subsequently, serial dilutions were made. Cerebellar microexplants were cultivated for 48-72 hours at 34° C., 5% CO2 in air and 100% humidity before they were fixed by increasing amounts of paraformaldehyde (0.4%, 1.2%, 3% and 4%—each treatment 2-3 min).
For statistical analysis of survival, four fields (each field having an area of 0.65 mm^2) of each fixed cerebellar culture with the highest cell densities were chosen, and cells displaying neurite outgrowth were counted. Statistical significance was measured by Student's t-test.
(§1) Laminated cerebellar cortex was extracted from P3/4, P7/8 rat pups and triturated through gauze having a 125 μm pore size to obtain uniformly sized microexplants. After centrifugation for 3 minutes at 61 g and the pellet was resuspended in StartV medium (Biochrom) and the suspension seeded on poly-D-lysine coated coverslips in 6-well plates and incubated for 3 hrs to allow adherence, before 1 ml StartV per well was added. As described previously, glutamate/3-NP and NRP were also added. The explants are cultivated at 34° C. at 5% CO2 and 100% humidity for 48-72 hrs. BrdU was administered at start of cultivation for proliferation rate measurements and cells are counted per microscopic field after 48-72 hrs.
Cerebellar Microexplants were prepared as described in Example 9 with the addition of SDF-1 as described, in addition to glutamate/3-NP, and NRP.
Cerebellar microexplants were prepared as described in Example 9 with the addition of SDF-1, Wortmannin and PD98059 (both Calbiochem), as described, in addition to glutamate/3-NP, and NRP.

mouse neural stem cells = assay: haptotactic migration assay, mouse neural stem cells; assay type: cell-based
Procedure: NRPs were tested for migration-inducing/chemoattractive activity on mouse neural stem cells, EGF-dependent immortalized mouse neural stem cell line MEB5 and wild-type PC-12 cells in a haptotactic migration assay as described below.
Initial NRP Coating. Control wells of Transwell plates (Coming) with 12 μm pore size were coated in 1.5 ml of the BSA/PBS vehicle. Remaining plates were coated using various concentrations of NRPs ranging between 1-100 ng/ml (prepared in PBS containing 10 ug/ml BSA). The plates were then incubated at 37° C. for 1 hr to coat. Wells were then rinsed 2× with 1 ml sterile PBS.
Laminin ([…]) for MEB-5 cells, PDL (50 μg/ml)+Matrigel for mouse primary stem cells and fibronectin (25 ug/ml)+matrigel for PC-12 cells were used as extracellular matrix (ECM) coating for the cells. All ECM compounds were diluted in PBS. 1.5 ml of the ECM per well was incubated for 2 hrs at room temperature. The wells were then rinsed once with Iml serum-free media (e.g. NB/B27) followed by 1 ml PBS wash.
A 5 ug/mL PDL/PLL mixture (in PBS) was used to coat inserts. Subsequently the inserts were rinsed with MilliQ water.
Transferring to Media and Cell Seeding: Appropriate medium (MEB-5 cells: DMEM-high glucose+N2 (growth medium supplement from Invitrogen)+10 ng/biotin+2 mM L-glutamine, primary stem cells: NSA-medium from Euroclone and for PC-12 cells: NB/B27 medium) was transferred into the 12-well plates. […] Plates were fixed at 1-2 days in vitro (DIV).
Fixation: Inserts were discarded and wells fixed in successive dilutions of PFA (0.4, 1.2, 3 and 4%) for 3-5min in each dilution. […] The wells were rinsed and stored in PBS until counting.
A haptotactic migration assay was performed according to the description of Example 10 using rat NRP-9SD (SEQ ID NO:34) (4 nM) and mouse NRP-7SW (SEQ ID NO:24) (0.4 nM) as attractants in a Boyden chamber

[2] = test system: OTCs of rat embryonic forebrain; assay: embryonic forebrain OTC migration assay (medial ganglionic eminence to cortical anlage); assay type: cell-based
Procedure: OTCs of rat embryonic forebrain were prepared as described. Briefly, pregnant rats at E17 gestation were sacrificed, the fetuses rapidly removed. Coronal slices of the forebrain were cut at 400 μm thickness and placed onto millicell PICM ORG50 membranes (Millipore) in 3 cm Petri dishes containing 1 ml of DMEMI/F12, 6.5 mg/ml glucose, 0.1 mM glutamine and 10% FCS for 34 hrs. Afterwards the medium was exchanged to 1 ml Neurobasal/B27, 6.5 mg/ml glucose, 0.1 mM glutamine, to which 10 μl PBS, NRP, or SDF-1 were added for the indicated concentrations and a small DiI (1,1′-dioctodecycyl-3,3,3′3-tetramethylindocarbocyanine) crystal of uniform size was placed in the medial ganglionic eminence (n=10-15) under a stereomicroscope. After 24 hrs cultivation the total number or migrated neurons dispersed in the ganglionic eminence and cortex were counted under an inverted fluorescent microscope.

cerebellar microexplants [3] = assay: cerebellar microexplant proliferation assay under injury (BrdU-positive nuclei); assay type: cell-based, rat
Procedure: Using the toxins described above, cerebellar explants were exposed for 24 hours, at the beginning of culturing to dilutions of NRP and 0.1 μM BrdU. Subsequently, 80% of the medium was changed without addition of new toxins and NRPs. The cerebellar cultures were fixed as described above after 3 days in vitro. The detection of the incorporated BrdU level was performed as described previously. Under these conditions, over 99% of the cells in the cerebellar population were neurons. Therefore any increase in cell number after NRP administration was most likely due to neuronal cell proliferation.
For statistical analysis of proliferation four fields (each field having an area of 0.65 mm^2) of each fixed cerebellar culture displaying highest density of BrdU-positive nuclei were chosen, and BrdU-positive nuclei were counted. Statistical significance was measured by Student's t-test.
as §1

neural stem cells = assay: neural stem cell differentiation assay, neuronal differentiation and axonal outgrowth; assay type: cell-based, mouse; conditions: together with BrdU for 24 hrs
Procedure: Neural stem cells were derived from E15 C3H mice forebrain and cultured as neurospheres in the presence of 20 ng/ml EGF and 10 ng/ml bFGF as described in Gritti et al. (2001). Briefly, timed pregnant mice were sacrificed and the embryos removed. Under sterile conditions the brains were removed and the forebrains dissected. The tissue was dissociated by trituration and pelleted by 75 g centrifugation for 10 minutes and the cells seeded in non-coated tissue culture flasks in NSA medium with growth factors. For passaging neurospheres were triturated and seeded as single cells.
Upon reaching a sufficient size, neurospheres were dissociated by trituration and plated at a density of 200,000 cells per well on laminin-coated 13 mm diameter coverslips that had been placed in Nunc 24 well plates. The plating medium was a 1:1 mixture of DMEM/F12 supplemented with N2 and Neurobasal supplemented with B27 and 2 mM glutamine. To enhance survival after plating the medium contained 2 ng/ml bFGF. After 24 h the medium was replaced with a neuronal differentiation-promoting medium (1:3 mixture of DMEM/F12 supplemented with N2 and Neurobasal supplemented with B27 and 2 mM glutamine) and except for the controls the test compound or IGF-1 was added simultaneously. The medium with fresh compound was exchanged every other day. Seven days after plating the differentiating cells were incubated for 20 minutes in differentiation medium containing 100 ng/ml Syto21 to label the nuclei of viable cells. Subsequently, they were fixed with 4% paraformaldehyde and immunostained with a mouse anti-βIII tubulin antibody and a goat anti-mouse Cy3-coupled secondary antibody.
After staining the coverslips were removed from the tissue culture plate and mounted on […], using Immunofluore fluorescent mounting medium. To analyse the percentage of neurons of total cells, with a Zeiss axiophot microscope, equipped with Axoivision software, at 20× magnification images of two random fields per well were taken in the red (tubulin stained neurons) and green (Syto21 stained nuclei) fluorescent channel. Neurons and nuclei per field were counted and the neuronal percentage of total cell number determined.

Molecule: CC(C)C[C@H](NC(=O)[C@H](CS)NC(=O)[C@@H]1CCCN1C(=O)[C@H](Cc1c[nH]cn1)NC(=O)[C@H](CC(C)C)NC(=O)[C@H](CO)NC(=O)CNC(=O)[C@@H]1CCCN1C(=O)[C@H](C)NC(=O)[C@H](CCCNC(=N)N)NC(=O)[C@H](CCCNC(=N)N)NC(=O)[C@H](C)NC(=O)[C@H](CCC(=O)O)NC(=O)[C@@H]1CCCN1C(=O)[C@H](CC(=O)O)NC(=O)[C@@H](N)CCCCN)C(=O)N[C@@H](C)C(=O)N[C@@H](C)C(=O)N[C@@H](CO)C(=O)N[C@@H](CS)C(=O)N[C@@H](CO)C(=O)N[C@@H](C)C(=O)N[C@@H](C)C(=O)NCC(N)=O [NRP-2 segment KG] (H-KDPEARRAPGSLHPCLAASCSAAG-NH2)
- cytotoxicity (cerebellar microexplants [1]): no cytotoxicity

Molecule: REGRRDAAAAAGG-NH2 [SEQ ID NO:47, NRP-5 RG analogue, PGR-domain substituted]
- neuroprotective activity compared to NRP-5 RG (cerebellar microexplants [1]): some neuroprotective effect at certain concentrations
- concentrations with some neuroprotective effect (cerebellar microexplants [1]; units in value): 0.1 pM, 10 pM and 100 nM

Molecule: SEPEARRAQGGQIPSERVLSD-NH2 [NRP-9 segment SD, 21-mer of rat NRP-9]
- concentration range of maximal neuronal survival activity (cerebellar microexplants [1]; 0.5 mM 3-NP/glutamate, 48 hrs): 0.1 to 10 pM
- cells attracted compared to control condition (mouse neural stem cells; 4 nM): Nearly four times

Molecule: COC[C@H]1OC(=O)c2coc3c2[C@@]1(C)C1=C(C3=O)[C@@H]2CCC(=O)[C@@]2(C)C[C@H]1OC(C)=O [wortmannin, reference compound]
- effect of inhibitor alone under vehicle and injury conditions (cerebellar microexplants [1]; without NRP): no significant effect after vehicle and injury conditions without the NRP

Molecule: SDF-1: chemokine stromal-derived factor, 63 amino acid long mature human SDF-1 [reference compound]
- neuroprotection compared to NRP (cerebellar microexplants [1]): narrow dose range of efficacy; also recorded: only a limited neuroprotective effect
- neuroprotection (cerebellar microexplants [1]; 10 nM, 0.5 mM 3-NP/glutamate 48 hrs): less than 30%
- number of cells attracted (mouse neural stem cells; 100 nM coating): attracted a similar number of cells, as did the 0.4 nM mouse NRP-7SW
- potency compared to NRP [2]: far less potent than NRP

Molecule: REGRRDAPGRAAA-NH2 [SEQ ID NO:46, NRP-5 RG analogue, C-terminal GG-domain substituted]
- only concentration with statistically significant effect (cerebellar microexplants [1]): 100 nM
- neuroprotective activity compared to NRP-5 RG (cerebellar microexplants [1]): had less effect than NRP-5 RP

Molecule: AAARRDAPGRAGG-NH2 [SEQ ID NO:45, NRP-5 RG analogue]
- concentration of maximal neuroprotective effect (cerebellar microexplants [1]): about 1 pM
- neuroprotective activity compared to NRP-5 RG (cerebellar microexplants [1]): even higher neuroprotective activity than the original NRP-5 RG

Molecule: GTPGRAEAGGQ-NH2 [NRP-4 segment GQ, 11-mer of NRP-4]
- concentration range of maximal biological activity for survival (cerebellar microexplants [1]; NRP simultaneous with 3-NP/glutamate, 48 hrs): 10-100 nM
- survival rates after severe injury (cerebellar microexplants [1]; nanomolar concentrations): 50%
- concentrations with statistically significant effects (cerebellar microexplants [1]; simultaneous, 48 hrs, units in value): 10 pM, 100 pM, 10 nM and 100 nM
- up regulation in the proliferation rate compared to injured cerebellar microexplants (cerebellar microexplants [3]; 10 nM): 132.2%
- concentration at which proliferation induction was observed (cerebellar microexplants [3]; 3-NP/glutamate, NRP and BrdU 24 hrs, counted after 72 hrs): 10 nM

Molecule: COc1cccc(-c2cc(=O)c3ccccc3o2)c1N [PD98509, reference compound]
- effect of inhibitor alone under vehicle and injury conditions (cerebellar microexplants [1]): only modest toxicity
- effect of inhibitor / neutralizing antibody on NRP neuroprotective activity (cerebellar microexplants [1]; with NRP-9 SD, antibody 1 μg/ml 72 hours, wortmannin 100 nM): abolished the neuroprotective activity of NRP; also recorded: completely blocked neuroprotective activity
- effect of inhibitor on NRP-induced increase in migrating NSC (mouse neural stem cells; NRP-9 SD (4 nM), 15 μM PD98509): almost completely blocked; also recorded: inhibited

Molecule: REAAADAPGRAGG-NH2 [SEQ ID NO:44, NRP-5 RG analogue]
- concentration of maximal neuroprotective effect (cerebellar microexplants [1]): about 1 pM
- neuroprotective activity compared to NRP-5 RG (cerebellar microexplants [1]): did not significantly change in the activity profile

B1: NRP-9: rat ortholog of mouse NRP-7 (protein)
chain: MLKLNEPKPGVVTSEELTGSGIWSSASGPNCSQHRDGEDGGCGRFINLAGNRTQRGCFPEAFPLLQAEPAEYGGPRSGHRLLRGSRGSEPEARRAQGGQIPSERVLSD
modifications: RAT
- proliferation rate during differentiation of NSC (neural stem cells): an increase in the proliferation rate
